SMILES strings stand for the structures.

The nature of series [1]: Phase-solubility study of nicardipine HCl and CAPTISOL as a function of pH. The following applies: FIG. 1. It counts as physicochemical. As to the method:
in this phase-solubility study, nicardipine HCl, in amounts that exceeded its solubility, was taken into vials containing buffers in the pH range of 3.6-7.4 and containing CAPTISOL® in the concentration range of 2-40% w/v. These evaluations were also done for buffer solutions containing no CAPTISOL®. The vials were sealed and shaken at room temperature until equilibrium was reached. Subsequently, test sample aliquots were withdrawn, filtered, and drug concentration was determined by RP-HPLC with UV detection.

The conditions of series [2]: cited from earlier work.

For `COC(=O)C1=C(C)NC(C)=C(C(=O)OCCN(C)Cc2ccccc2)C1c1cccc([N+](=O)[O-])c1.Cl` (racemic) [nicardipine HCl, (±)-2-(benzyl-methylamino)ethyl methyl 1,4-dihydro-2,6-dimethyl-4-(m-nitrophenyl)-3,5-pyridinedicarboxylate monohydrochloride], the “solubility as a function of CAPTISOL concentration” value in series [1] (at a given pH value, CAPTISOL 2-40% w/v) was “increased”. For the same compound, in series [1] (buffers pH 3.6-7.4, room temperature), the “solubility as a function of pH” value is “decreased with increased pH”.

Regarding `COC(=O)C1=C(C)NC(C)=C(C(=O)OCCN(C)Cc2ccccc2)C1c1cccc([N+](=O)[O-])c1` (stereo not drawn) [Nicardipine, nicardipine], the solubility in water result in series [2] is on record as “only slightly soluble in water”.

The values are drawn from patent publication US9549994B2, “Compositions of nicardipine and sulfoalkylated β-cyclodextrin” (EKR Therapeutics, Inc., priority 2006, dated 2017).
